# Measurements reported in paper PMC9898036, “VIP152 is a selective CDK9 inhibitor with pre-clinical in vitro and in vivo efficacy in chronic lymphocytic leukemia” (Leukemia, 2022).
# How the values were obtained:
# Test in all cases: DiscoverX KINOMEscan kinase profiling (468 assays)
# Type in all cases: binding
# [1] = biological target: human kinome (Homo sapiens, UniProt Q96L34); conditions: MARK4; 100 nM; read-out: Percent Control
# In short: (§1)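 VIP152 was run in DMSO, alongside a DMSO control. Readout was qPCR of DNA-tagged kinase still bound to bead-immobilized biotinylated kinase ligands after compound competition.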
# [2] = biological target: human kinome (Homo sapiens, UniProt Q13043); conditions: MST1 (Entrez STK4); 100 nM; read-out: Percent Control
# In short: as §1
# [3] = biological target: human kinome (Homo sapiens, UniProt Q15831); conditions: LKB1 (Entrez STK11); 100 nM; read-out: Percent Control
# In short: as §1
# [4] = biological target: human kinome (Homo sapiens, UniProt P21802); conditions: FGFR2; 100 nM; read-out: Percent Control
# In short: as §1
# [5] = biological target: human kinome (Homo sapiens, UniProt P31751); conditions: AKT2; 100 nM; read-out: Percent Control
# In short: as §1
# [6] = biological target: human kinome (Homo sapiens, UniProt P36888, D835H); conditions: FLT3(D835H); 100 nM; read-out: Percent Control
# In short: as §1
# [7] = biological target: human kinome (Homo sapiens, UniProt Q8IYT8); conditions: kinase ULK2 (Entrez ULK2); compound concentration 1000 nM; read-out: Percent Control
# In short: as §1
# [8] = biological target: human kinome (Homo sapiens, UniProt O14578); conditions: CIT; 100 nM; read-out: Percent Control
# In short: as §1
# [9] = biological target: human kinome (Homo sapiens, UniProt Q13555); conditions: CAMK2G; 100 nM; read-out: Percent Control
# In short: as §1
# [10] = biological target: human kinome (Homo sapiens, UniProt O75716); conditions: kinase STK16 (Entrez STK16); compound concentration 1000 nM; read-out: Percent Control
# In short: as §1
# [11] = biological target: human kinome (Homo sapiens, UniProt P49760); conditions: CLK2; 100 nM; read-out: Percent Control
# In short: as §1
# [12] = biological target: human kinome (Homo sapiens, UniProt P20794); conditions: MAK; 100 nM; read-out: Percent Control
# In short: as §1
# [13] = biological target: human kinome (Homo sapiens, UniProt P36888, D835Y); conditions: FLT3(D835Y); 100 nM; read-out: Percent Control
# In short: as §1
# [14] = biological target: human kinome (Homo sapiens, UniProt Q9UKE5); conditions: kinase TNIK (Entrez TNIK); compound concentration 1000 nM; read-out: Percent Control
# In short: as §1
# [15] = biological target: human kinome (Homo sapiens, UniProt P57059); conditions: kinase SIK (Entrez SIK1); compound concentration 1000 nM; read-out: Percent Control
# In short: as §1
# [16] = biological target: human kinome (Homo sapiens, UniProt Q16659); conditions: ERK3 (Entrez MAPK6); 100 nM; read-out: Percent Control
# In short: as §1
# [17] = biological target: human kinome (Homo sapiens, UniProt O96017); conditions: CHEK2; 100 nM; read-out: Percent Control
# In short: as §1
# [18] = biological target: human kinome (Homo sapiens, UniProt Q06418); conditions: kinase TYRO3 (Entrez TYRO3); compound concentration 1000 nM; read-out: Percent Control
# In short: as §1
# [19] = biological target: human kinome (Homo sapiens, UniProt Q15375); conditions: EPHA7; 100 nM; read-out: Percent Control
# In short: as §1
# [20] = biological target: human kinome (Homo sapiens, UniProt P16234); conditions: read-out: Percent Control
# In short: as §1
# [21] = biological target: human kinome (Homo sapiens, UniProt P08581); conditions: MET; 100 nM; read-out: Percent Control
# In short: as §1
# [22] = biological target: human kinome (Homo sapiens, UniProt O00444); conditions: read-out: Percent Control
# In short: as §1
# [23] = biological target: human kinome (Homo sapiens, UniProt P07947); conditions: kinase YES (Entrez YES1); compound concentration 1000 nM; read-out: Percent Control
# In short: as §1
# [24] = biological target: human kinome (Homo sapiens, UniProt P17948); conditions: FLT1; 100 nM; read-out: Percent Control
# In short: as §1
# [25] = biological target: human kinome (Homo sapiens, UniProt P12931); conditions: kinase SRC (Entrez SRC); compound concentration 1000 nM; read-out: Percent Control
# In short: as §1
# [26] = biological target: human kinome (Homo sapiens, UniProt Q02156); conditions: read-out: Percent Control
# In short: as §1
# [27] = biological target: human kinome (Homo sapiens, UniProt Q9BUB5); conditions: MKNK1; 100 nM; read-out: Percent Control
# In short: as §1
# [28] = biological target: human kinome (Homo sapiens, UniProt P29323); conditions: EPHB2; 100 nM; read-out: Percent Control
# In short: as §1
# [29] = biological target: human kinome (Homo sapiens, UniProt Q8TDC3); conditions: BRSK1; 100 nM; read-out: Percent Control
# In short: as §1
# [30] = biological target: human kinome (Homo sapiens, UniProt Q9P2K8, S808G); conditions: GCN2(Kin.Dom.2,S808G) (Entrez EIF2AK4); 100 nM; read-out: Percent Control
# In short: as §1
# [31] = biological target: human kinome (Homo sapiens, UniProt Q09013); conditions: DMPK; 100 nM; read-out: Percent Control
# In short: as §1
# human kinome (Homo sapiens, UniProt O00444), sequence (O00444 whole entry): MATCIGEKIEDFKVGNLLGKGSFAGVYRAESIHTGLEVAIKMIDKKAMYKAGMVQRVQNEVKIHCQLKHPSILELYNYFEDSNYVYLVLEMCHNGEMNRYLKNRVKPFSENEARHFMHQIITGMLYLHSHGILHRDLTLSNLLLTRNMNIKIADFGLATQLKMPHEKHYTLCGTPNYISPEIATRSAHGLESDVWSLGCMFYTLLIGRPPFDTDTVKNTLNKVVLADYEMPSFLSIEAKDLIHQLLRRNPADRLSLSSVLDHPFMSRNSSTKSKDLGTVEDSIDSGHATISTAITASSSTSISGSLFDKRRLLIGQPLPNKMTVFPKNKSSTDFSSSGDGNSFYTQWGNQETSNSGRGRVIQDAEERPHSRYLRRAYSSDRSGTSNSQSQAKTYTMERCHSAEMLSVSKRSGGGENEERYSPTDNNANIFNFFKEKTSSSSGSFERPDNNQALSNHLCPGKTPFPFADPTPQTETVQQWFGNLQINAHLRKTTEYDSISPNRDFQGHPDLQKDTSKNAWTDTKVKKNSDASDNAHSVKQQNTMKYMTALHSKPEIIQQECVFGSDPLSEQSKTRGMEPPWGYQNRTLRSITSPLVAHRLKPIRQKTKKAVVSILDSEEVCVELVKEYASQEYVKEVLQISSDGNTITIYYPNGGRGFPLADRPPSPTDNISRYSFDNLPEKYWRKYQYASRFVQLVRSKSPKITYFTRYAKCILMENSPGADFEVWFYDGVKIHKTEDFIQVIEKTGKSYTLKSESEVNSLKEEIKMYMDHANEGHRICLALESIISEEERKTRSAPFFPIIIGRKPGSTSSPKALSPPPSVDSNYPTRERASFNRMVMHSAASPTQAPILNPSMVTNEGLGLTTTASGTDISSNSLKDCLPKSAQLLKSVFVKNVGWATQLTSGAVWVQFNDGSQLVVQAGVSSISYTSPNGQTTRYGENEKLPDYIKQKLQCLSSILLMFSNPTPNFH
# human kinome (Homo sapiens, UniProt P16234), sequence (P16234 24-1089): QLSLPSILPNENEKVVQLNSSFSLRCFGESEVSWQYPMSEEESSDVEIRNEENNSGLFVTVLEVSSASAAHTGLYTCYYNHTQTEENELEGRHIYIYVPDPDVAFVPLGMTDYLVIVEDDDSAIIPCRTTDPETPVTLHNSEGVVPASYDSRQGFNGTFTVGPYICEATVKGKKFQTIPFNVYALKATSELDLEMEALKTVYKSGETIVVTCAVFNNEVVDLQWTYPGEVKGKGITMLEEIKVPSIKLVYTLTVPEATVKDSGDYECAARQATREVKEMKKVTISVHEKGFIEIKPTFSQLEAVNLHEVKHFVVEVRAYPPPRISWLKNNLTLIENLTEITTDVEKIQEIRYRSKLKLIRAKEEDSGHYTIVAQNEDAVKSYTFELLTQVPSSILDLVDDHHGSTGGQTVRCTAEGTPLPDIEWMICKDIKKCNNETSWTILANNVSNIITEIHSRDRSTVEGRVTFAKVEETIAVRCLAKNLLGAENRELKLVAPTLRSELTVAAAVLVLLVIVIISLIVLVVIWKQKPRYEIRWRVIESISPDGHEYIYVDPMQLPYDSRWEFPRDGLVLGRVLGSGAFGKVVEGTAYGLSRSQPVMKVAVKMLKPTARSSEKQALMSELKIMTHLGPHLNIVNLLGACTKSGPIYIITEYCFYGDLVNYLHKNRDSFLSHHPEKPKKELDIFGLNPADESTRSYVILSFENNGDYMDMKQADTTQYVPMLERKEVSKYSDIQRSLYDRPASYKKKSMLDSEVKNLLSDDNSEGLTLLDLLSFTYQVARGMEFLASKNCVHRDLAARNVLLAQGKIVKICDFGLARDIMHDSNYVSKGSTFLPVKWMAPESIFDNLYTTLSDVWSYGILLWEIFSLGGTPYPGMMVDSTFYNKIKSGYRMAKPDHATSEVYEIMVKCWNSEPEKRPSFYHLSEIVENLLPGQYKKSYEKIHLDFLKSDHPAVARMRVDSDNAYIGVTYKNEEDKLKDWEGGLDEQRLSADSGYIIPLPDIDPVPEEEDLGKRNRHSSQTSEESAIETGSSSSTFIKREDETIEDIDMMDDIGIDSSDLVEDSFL
# human kinome (Homo sapiens, UniProt Q02156), sequence (Q02156 whole entry): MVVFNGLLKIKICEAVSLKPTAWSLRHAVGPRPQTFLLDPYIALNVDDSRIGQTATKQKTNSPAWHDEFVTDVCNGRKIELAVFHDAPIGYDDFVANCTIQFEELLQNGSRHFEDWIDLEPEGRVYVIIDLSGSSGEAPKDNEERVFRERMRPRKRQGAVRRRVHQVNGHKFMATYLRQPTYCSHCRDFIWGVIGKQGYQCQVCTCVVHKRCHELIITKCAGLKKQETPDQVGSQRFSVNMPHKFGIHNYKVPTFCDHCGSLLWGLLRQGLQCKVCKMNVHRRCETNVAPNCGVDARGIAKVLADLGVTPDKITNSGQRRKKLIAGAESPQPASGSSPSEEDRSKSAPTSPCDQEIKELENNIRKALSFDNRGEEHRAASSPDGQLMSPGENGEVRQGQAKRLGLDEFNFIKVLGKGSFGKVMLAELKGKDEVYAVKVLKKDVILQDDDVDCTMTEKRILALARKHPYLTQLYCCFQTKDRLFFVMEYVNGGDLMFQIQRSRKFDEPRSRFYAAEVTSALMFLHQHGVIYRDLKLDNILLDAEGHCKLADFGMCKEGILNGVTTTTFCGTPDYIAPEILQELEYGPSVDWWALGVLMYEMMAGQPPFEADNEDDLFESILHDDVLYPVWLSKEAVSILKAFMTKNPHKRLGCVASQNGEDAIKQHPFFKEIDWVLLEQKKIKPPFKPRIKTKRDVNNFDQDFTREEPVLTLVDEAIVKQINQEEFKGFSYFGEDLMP
# human kinome (Homo sapiens, UniProt Q09013), sequence (Q09013 whole entry): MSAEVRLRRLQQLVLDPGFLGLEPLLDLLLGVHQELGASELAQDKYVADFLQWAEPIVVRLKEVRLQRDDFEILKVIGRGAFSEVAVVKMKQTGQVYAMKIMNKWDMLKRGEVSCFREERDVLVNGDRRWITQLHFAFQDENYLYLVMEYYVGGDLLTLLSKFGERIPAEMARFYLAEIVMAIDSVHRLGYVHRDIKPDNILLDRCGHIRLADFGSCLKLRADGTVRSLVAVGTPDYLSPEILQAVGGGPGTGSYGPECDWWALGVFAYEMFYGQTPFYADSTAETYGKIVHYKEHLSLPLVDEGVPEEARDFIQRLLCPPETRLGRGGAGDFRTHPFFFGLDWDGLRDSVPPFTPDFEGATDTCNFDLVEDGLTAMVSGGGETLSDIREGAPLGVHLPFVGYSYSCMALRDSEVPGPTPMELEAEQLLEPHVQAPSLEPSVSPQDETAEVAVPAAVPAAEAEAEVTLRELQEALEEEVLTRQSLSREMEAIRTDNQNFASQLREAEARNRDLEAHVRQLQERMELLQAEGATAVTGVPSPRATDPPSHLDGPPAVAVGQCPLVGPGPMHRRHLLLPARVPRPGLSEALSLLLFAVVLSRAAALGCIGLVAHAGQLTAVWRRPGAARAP
# human kinome (Homo sapiens, UniProt Q16659), sequence (Q16659 whole entry): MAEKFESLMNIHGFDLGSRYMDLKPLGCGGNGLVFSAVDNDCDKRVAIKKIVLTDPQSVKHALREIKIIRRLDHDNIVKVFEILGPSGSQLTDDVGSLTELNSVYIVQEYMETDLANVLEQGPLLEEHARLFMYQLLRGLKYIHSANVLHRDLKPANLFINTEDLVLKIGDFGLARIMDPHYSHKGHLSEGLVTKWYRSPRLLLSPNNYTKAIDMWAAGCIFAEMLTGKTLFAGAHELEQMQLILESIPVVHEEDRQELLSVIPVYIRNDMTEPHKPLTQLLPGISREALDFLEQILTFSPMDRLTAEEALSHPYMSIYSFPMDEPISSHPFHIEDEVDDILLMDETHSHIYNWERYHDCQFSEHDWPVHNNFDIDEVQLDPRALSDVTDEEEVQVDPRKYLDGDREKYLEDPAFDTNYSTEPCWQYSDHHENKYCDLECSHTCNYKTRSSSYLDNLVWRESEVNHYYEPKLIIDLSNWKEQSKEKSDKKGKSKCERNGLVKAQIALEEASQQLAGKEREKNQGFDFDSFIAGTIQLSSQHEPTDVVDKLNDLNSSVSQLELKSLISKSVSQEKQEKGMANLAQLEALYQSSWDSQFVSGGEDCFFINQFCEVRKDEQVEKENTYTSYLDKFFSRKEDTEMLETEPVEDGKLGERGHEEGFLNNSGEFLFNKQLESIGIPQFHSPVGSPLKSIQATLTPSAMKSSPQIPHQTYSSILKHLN
# human kinome (Homo sapiens, UniProt P57059), sequence (P57059 whole entry): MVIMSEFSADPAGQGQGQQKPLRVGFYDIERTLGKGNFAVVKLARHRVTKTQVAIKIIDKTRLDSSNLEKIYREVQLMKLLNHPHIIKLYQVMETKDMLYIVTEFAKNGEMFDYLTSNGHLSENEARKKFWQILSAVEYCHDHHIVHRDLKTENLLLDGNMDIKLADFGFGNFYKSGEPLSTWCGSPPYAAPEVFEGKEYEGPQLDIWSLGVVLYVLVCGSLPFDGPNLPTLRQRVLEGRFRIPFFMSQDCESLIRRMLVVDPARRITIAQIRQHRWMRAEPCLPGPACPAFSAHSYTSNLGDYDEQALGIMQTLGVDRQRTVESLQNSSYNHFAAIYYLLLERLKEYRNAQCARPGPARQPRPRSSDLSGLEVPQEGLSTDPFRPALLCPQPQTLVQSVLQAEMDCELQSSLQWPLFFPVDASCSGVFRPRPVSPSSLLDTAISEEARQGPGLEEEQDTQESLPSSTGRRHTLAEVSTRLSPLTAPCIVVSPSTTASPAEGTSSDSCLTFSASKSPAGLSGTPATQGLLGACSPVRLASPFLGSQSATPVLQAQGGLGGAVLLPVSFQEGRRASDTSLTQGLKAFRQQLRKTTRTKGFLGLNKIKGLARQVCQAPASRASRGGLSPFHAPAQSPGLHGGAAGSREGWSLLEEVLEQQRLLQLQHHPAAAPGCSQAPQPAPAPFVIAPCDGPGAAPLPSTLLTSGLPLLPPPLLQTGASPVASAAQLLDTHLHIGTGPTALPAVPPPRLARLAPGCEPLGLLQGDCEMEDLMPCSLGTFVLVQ
compound,measurement,setting,value
COc1cc(F)ccc1-c1cc(Nc2cc(CS(C)(=N)=O)ccn2)ncc1F (stereo not shown) [VIP152],remaining binding at 0.1 µM,[1],81%
same,remaining binding at 0.1 µM,[2],99%
same,remaining binding at 0.1 µM,[3],100%
same,remaining binding at 0.1 µM,[4],100%
same,remaining binding at 0.1 µM,[5],100%
same,remaining binding at 0.1 µM,[6],100%
same,remaining binding at 1 µM,[7],97%
same,remaining binding at 0.1 µM,[8],100%
same,remaining binding at 0.1 µM,[9],100%
same,remaining binding at 1 µM,[10],44%
same,remaining binding at 0.1 µM,[11],61%
same,remaining binding at 0.1 µM,[12],100%
same,remaining binding at 0.1 µM,[13],100%
same,remaining binding at 1 µM,[14],32%
same,remaining binding at 1 µM,[15],88%
same,remaining binding at 0.1 µM,[16],100%
same,remaining binding at 0.1 µM,[17],100%
same,remaining binding at 1 µM,[18],56%
same,remaining binding at 0.1 µM,[19],100%
same,remaining binding at 0.1 µM,"[20]; PDGFRA, 100 nM",100%
same,remaining binding at 1 µM,"[20]; kinase PDGFRA (Entrez PDGFRA), compound concentration 1000 nM",80%
same,remaining binding at 0.1 µM,[21],57%
same,remaining binding at 0.1 µM,"[22]; PLK4, 100 nM",100%
same,remaining binding at 1 µM,"[22]; kinase PLK4 (Entrez PLK4), compound concentration 1000 nM",79%
same,remaining binding at 1 µM,[23],86%
same,remaining binding at 0.1 µM,[24],100%
same,remaining binding at 1 µM,[25],83%
same,remaining binding at 0.1 µM,"[26]; PRKCE, 100 nM",58%
same,remaining binding at 1 µM,"[26]; kinase PRKCE (Entrez PRKCE), compound concentration 1000 nM",99%
same,remaining binding at 0.1 µM,[27],94%
same,remaining binding at 0.1 µM,[28],100%
same,remaining binding at 0.1 µM,[29],100%
same,remaining binding at 0.1 µM,[30],96%
same,remaining binding at 0.1 µM,[31],96%
